This is an account of results in ChEMBL document CHEMBL1201862, “PubChem BioAssay data set” (2004).

Calls of active or inactive are those of the source. Where only a bound is given, the exact number is not on record here.

In one experiment the target is T1, Estrogen receptor (Homo sapiens, UniProt P03372).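 Note: potency for inhibiting coactivator peptide recruitment to the receptor.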
T1 sequence (P03372 whole entry): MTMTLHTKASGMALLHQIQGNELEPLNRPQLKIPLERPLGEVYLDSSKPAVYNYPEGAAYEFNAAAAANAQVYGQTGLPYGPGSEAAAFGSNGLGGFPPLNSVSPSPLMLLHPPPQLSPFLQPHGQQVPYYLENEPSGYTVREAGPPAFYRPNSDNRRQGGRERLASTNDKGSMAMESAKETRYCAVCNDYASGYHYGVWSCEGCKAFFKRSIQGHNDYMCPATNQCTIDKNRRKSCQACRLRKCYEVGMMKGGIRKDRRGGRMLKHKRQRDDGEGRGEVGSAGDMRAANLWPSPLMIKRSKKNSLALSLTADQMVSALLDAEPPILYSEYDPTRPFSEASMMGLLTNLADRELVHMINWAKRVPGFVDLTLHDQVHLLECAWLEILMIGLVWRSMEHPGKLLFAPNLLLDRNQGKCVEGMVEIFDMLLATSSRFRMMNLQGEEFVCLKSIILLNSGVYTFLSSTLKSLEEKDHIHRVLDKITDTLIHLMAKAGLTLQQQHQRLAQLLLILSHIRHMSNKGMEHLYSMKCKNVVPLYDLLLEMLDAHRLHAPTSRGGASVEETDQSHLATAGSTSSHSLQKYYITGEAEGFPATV

For experiment [1], the target named is Ubiquitin carboxyl-terminal hydrolase BAP1 (Homo sapiens, UniProt Q92560). Briefly: inhibition of BAP1 ubiquitin hydrolase activity – biochemical, dose response (AID 714). The class given is functional.
Ubiquitin carboxyl-terminal hydrolase BAP1, sequence (Q92560 whole entry): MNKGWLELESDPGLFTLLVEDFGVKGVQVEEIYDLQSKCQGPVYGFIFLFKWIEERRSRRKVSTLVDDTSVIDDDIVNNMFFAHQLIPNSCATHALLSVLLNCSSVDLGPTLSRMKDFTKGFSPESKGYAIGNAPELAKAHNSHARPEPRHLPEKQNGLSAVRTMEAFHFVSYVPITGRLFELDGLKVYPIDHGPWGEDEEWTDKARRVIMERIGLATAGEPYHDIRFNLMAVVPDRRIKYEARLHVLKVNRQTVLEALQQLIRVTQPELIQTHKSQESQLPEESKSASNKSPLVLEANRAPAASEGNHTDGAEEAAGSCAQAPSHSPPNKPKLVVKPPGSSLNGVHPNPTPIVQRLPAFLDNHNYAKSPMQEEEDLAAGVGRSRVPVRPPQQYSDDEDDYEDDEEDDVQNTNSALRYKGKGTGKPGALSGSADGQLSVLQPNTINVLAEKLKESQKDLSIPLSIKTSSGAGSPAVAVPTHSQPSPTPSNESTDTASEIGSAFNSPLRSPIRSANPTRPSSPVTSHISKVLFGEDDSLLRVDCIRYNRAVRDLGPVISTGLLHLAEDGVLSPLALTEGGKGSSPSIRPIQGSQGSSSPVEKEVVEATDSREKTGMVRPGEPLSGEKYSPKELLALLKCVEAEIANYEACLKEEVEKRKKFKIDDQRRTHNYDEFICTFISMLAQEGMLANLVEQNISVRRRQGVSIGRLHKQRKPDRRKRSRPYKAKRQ
The target of the next experiment is Protein Tat (Human immunodeficiency virus type 1 group M subtype B (isolate HXB2)(HIV-1), UniProt P04608). Format: functional.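 Note: tat binding to TAR RNA read out by fluorescence polarization.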
Experiment [2] can be described thus: M. tuberculosis growth inhibition, HTS (AID 449762). The class given is functional.
The next experiment addresses Galanin receptor type 2 (Homo sapiens, UniProt O43603). The experiment in a line: Dose Response cell-based high-throughput screening assay to identify agonists of galanin receptor 2 (GALR2). [Related pubchem assays: 864 ]. The class given is functional.
Experiment [3] has as its target DNA dC->dU-editing enzyme APOBEC-3A (Homo sapiens, UniProt P31941). The experiment in a line: Dose Response confirmation of small molecule APOBEC3A DNA Deaminase Inhibitors via a fluorescence-based single-stranded DNA deaminase assay. [Related pubchem assays (depositor defined):AID493011, AID493024]. The class given is functional.
The target in experiment [4] is Mitogen-activated protein kinase 10 (Homo sapiens, UniProt P53779). Briefly: Dose response biochemical screening assay for inhibitors of c-Jun N-Terminal Kinase 3 (JNK3). [Related pubchem assays: 746 ].
Mitogen-activated protein kinase 10, sequence (P53779 whole entry): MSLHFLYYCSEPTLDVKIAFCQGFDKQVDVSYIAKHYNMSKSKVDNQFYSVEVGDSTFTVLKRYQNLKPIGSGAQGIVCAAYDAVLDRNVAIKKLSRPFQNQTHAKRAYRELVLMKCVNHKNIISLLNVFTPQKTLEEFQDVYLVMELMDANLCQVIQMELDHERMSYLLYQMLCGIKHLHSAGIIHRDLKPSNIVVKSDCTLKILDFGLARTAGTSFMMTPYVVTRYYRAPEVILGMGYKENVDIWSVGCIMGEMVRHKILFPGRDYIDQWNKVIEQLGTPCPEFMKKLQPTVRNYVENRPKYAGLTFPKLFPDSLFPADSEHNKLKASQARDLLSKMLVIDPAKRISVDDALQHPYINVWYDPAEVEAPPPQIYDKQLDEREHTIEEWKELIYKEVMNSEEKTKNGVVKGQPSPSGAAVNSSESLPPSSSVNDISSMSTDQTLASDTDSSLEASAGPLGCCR
Experiment [5] has as its target DNA dC->dU-editing enzyme APOBEC-3G (Homo sapiens, UniProt Q9HC16). Format: functional.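 Note: Dose-response counterscreen measuring inhibition of APOBEC3G DNA deaminase activity, run while confirming APOBEC3A inhibitors.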
For experiment [6], the target named is Diphosphomevalonate decarboxylase (Streptococcus pneumoniae serotype 2 (strain D39 / NCTC 7466), UniProt Q9FD53). Briefly: diphosphomevalonate decarboxylase inhibitor confirmation – biochemical, cuvette format, coupled NADH fluorescence (AID 1028). Format: functional.
The target of experiment [7] is Tyrosine-protein phosphatase non-receptor type 11 (Homo sapiens, UniProt Q06124). Briefly: PTPN11 enzyme inhibitors – biochemical, selectivity assay for STEP inhibitor project, dose response (AID 602367). The settings on record: read-out: IC50_Mean. Format: functional.
Experiment [8] addresses Tyrosine-protein phosphatase non-receptor type 22 (Homo sapiens, UniProt Q9Y2R2). The experiment in a line: lymphoid phosphatase LYP inhibitors – biochemical, selectivity assay for STEP inhibitor project, dose response (AID 624241). Format: functional.
For experiment [9], the target named is Tyrosine-protein phosphatase non-receptor type 5 (Homo sapiens, UniProt P54829). The experiment in a line: PTPN5 enzyme inhibition – biochemical, fluorescence intensity, uHTS hits, confirmation (AID 602372). The settings on record: read-out: IC50_Mean. Format: functional.
Experiment [10] concerns the target Photoreceptor-specific nuclear receptor (Homo sapiens, UniProt Q9Y5X4). Briefly: ligands suppressing NR2E3 nuclear receptor activity – biochemical, TR-FRET, dose response (AID 463256). Format: functional.
Experiment [11] has as its target Dual specificity protein phosphatase 3 (Homo sapiens, UniProt P51452). Briefly: VHR phosphatase inhibition, dose response, selectivity assay for STEP inhibitor project, biochemical (AID 602374). The class given is functional. The settings on record: read-out: IC50_Mean.
Experiment [12] concerns the target Peroxisome proliferator-activated receptor gamma/Nuclear receptor corepressor 2 (Homo sapiens, UniProt P37231+Q9Y618). The experiment in a line: Counterscreen for NR2E3 inverse agonists: TR-FRET-based biochemical high throughput dose response assay to identify inverse agonists of the interaction between peroxisome proliferator-activated receptor gamma (PPARg) and nuclear receptor co-repressor 2 (NCOR2). Format: functional. (The purpose of a counterscreen is to sort out artefacts and off-target activity.)

Another experiment in a line: cells. Format: functional, cell-based. To be noted: INS-1E.
The nature of experiment [13]: IC50 of insulin release inhibition, rat insulinoma INS-1E line, 5 mM glucose, cell-based (AID 1117331). The class given is functional.

Peroxisome proliferator-activated receptor gamma/Nuclear receptor corepressor 2, sequence (P37231 whole entry): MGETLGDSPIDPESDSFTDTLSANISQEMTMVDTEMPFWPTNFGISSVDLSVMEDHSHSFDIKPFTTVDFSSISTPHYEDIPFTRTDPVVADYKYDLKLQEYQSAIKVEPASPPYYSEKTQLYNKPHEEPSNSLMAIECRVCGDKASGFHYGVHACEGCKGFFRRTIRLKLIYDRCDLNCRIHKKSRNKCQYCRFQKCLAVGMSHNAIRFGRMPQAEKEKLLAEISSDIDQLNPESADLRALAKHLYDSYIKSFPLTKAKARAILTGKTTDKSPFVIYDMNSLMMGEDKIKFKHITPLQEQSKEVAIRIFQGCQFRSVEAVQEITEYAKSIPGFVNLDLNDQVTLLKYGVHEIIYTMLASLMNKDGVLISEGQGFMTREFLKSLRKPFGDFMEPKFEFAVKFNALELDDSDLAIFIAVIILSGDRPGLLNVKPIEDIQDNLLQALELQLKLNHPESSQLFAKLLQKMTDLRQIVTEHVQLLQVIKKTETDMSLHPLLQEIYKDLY
Peroxisome proliferator-activated receptor gamma/Nuclear receptor corepressor 2, sequence (Q9Y618 whole entry): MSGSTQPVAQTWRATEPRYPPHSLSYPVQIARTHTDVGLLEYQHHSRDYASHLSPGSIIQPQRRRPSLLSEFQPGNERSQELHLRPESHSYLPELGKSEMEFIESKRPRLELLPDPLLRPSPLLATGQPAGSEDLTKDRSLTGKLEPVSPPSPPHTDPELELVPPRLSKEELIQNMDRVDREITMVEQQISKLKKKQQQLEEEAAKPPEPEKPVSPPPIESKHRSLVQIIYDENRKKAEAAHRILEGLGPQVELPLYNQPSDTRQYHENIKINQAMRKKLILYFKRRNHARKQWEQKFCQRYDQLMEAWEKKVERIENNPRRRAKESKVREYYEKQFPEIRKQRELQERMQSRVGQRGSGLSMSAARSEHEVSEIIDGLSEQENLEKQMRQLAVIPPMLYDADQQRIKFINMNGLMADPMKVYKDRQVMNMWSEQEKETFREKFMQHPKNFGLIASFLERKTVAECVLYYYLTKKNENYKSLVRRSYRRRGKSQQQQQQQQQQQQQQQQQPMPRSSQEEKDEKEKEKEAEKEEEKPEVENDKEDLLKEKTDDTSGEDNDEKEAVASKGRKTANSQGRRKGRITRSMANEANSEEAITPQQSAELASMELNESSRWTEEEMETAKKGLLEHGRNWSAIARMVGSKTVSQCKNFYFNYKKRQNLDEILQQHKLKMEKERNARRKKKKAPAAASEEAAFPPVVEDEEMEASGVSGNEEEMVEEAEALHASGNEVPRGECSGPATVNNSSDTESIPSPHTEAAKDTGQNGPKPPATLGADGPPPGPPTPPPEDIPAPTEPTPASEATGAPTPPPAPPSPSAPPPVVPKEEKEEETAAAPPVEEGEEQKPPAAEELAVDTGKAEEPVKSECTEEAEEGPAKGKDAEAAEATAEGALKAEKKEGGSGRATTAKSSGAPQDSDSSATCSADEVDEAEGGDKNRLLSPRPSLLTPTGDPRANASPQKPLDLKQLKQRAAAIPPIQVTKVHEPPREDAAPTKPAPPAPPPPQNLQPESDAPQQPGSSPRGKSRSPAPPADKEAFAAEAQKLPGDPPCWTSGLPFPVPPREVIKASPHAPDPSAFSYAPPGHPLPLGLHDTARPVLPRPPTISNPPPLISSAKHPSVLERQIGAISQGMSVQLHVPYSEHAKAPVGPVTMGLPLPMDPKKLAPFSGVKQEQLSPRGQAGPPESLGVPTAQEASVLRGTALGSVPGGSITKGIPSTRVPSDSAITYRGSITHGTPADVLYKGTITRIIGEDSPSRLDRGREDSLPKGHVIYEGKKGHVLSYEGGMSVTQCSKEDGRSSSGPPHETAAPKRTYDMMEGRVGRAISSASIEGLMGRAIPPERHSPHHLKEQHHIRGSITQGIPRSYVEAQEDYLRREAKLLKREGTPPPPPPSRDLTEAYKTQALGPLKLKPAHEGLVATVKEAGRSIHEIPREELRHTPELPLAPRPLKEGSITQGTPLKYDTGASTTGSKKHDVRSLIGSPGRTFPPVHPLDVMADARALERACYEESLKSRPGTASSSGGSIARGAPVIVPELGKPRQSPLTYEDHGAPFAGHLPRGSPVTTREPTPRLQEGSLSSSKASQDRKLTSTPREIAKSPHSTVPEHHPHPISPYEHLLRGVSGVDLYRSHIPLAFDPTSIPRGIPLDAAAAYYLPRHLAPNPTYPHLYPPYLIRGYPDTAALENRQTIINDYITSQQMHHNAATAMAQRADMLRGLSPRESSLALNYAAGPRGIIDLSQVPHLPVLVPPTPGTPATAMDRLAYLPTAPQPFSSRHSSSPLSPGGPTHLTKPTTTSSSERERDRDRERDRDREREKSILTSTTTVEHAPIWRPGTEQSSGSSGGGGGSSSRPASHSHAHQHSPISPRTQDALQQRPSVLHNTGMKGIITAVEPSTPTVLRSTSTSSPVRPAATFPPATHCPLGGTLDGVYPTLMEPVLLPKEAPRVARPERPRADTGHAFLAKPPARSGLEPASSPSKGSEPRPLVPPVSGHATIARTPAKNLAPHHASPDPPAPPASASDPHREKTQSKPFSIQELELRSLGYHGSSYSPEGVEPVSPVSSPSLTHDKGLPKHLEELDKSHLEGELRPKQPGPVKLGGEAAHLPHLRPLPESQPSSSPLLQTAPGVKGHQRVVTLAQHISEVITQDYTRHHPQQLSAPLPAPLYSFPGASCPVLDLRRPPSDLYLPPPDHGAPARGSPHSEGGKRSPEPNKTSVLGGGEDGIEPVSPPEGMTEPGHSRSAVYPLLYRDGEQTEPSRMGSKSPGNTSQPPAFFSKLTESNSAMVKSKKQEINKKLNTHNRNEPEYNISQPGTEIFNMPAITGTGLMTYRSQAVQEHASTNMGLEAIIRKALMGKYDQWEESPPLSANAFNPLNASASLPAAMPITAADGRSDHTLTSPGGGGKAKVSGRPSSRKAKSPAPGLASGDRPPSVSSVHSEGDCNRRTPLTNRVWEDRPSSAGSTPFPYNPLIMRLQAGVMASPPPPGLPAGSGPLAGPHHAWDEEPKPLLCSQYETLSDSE
Photoreceptor-specific nuclear receptor, sequence (Q9Y5X4 whole entry): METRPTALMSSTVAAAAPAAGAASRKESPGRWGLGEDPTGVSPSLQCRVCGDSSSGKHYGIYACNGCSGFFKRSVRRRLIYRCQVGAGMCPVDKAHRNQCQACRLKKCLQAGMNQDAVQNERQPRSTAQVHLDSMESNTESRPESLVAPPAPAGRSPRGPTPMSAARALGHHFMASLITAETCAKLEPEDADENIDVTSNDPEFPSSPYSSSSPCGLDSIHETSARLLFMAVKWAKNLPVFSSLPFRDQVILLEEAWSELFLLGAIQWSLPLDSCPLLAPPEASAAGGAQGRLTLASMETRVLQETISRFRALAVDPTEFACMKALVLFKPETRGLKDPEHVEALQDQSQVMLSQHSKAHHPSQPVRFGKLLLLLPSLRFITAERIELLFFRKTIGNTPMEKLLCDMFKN
Dual specificity protein phosphatase 3, sequence (P51452 whole entry): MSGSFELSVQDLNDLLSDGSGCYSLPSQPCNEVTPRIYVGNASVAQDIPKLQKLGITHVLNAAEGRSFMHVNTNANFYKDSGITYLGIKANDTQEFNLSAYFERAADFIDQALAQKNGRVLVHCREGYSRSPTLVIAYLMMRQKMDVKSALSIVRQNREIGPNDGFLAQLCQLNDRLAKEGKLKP
DNA dC->dU-editing enzyme APOBEC-3A, sequence (P31941 whole entry): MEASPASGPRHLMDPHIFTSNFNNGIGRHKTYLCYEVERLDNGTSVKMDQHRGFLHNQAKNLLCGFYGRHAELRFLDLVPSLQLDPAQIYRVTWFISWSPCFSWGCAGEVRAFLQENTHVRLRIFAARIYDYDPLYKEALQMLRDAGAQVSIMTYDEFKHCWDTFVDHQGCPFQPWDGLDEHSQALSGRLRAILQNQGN

Turning to `Cc1sc(NC(=O)CSc2nnc(-c3ccc(F)cc3)o2)c(C#N)c1C`, the IC50 against Estrogen receptor was > 50 µM (not active); in experiment [1], 10.5 µM (active).

For `CCc1ccccc1N(CC(=O)NCCSCc1ccco1)S(C)(=O)=O`, the IC50 on Protein Tat was > 100 µM (active).

On to `Cc1cc(/C=C(/C#N)c2cccc(F)c2)c(C)n1-c1cccnc1`, for which the IC50 in [2] was > 100 µM (active).

What is called EC50 is the midpoint of the concentration-response curve. The low end stands for a more potent agent, the high end for a less potent agent. For the molecule `C=CCNC(=O)/C(C#N)=C/c1cn(-c2ccccc2)nc1-c1cccs1`, the half-maximal effective concentration (EC50) on Galanin receptor type 2 is listed as 45.4 µM (not active).

Turning to `CC1(C)Oc2ccc3ccc(=O)oc3c2-c2c[nH]nc21`, the IC50 in experiment [3] was 4.45 µM (active); in [4], > 31 µM (not active); in [5] it was 5.7 µM (active).

With `O=C(NCc1ccco1)c1cccc(-n2sc3ccccc3c2=O)c1`, the IC50 in experiment [6] is 10.5 µM (active).

As to `COc1ccc(-c2ccc(NC(=O)c3ccc(Br)o3)cc2)nn1`, the IC50 in experiment [7] is 4.3 µM (active); in [8], 74.1 µM (inactive); in experiment [9], 18 µM (active); in [10] it was 3.38 µM (active); in experiment [11], 6.6 µM (active); in experiment [12], 4.7 µM (active).

For the molecule `c1cc(CN2CCCCC2)cc(OCCCNc2nc3ccccc3s2)c1`, the results for the IC50 (in the experiment “cells”; in [13]) were > 33.3 µM (inactive) and > 11.1 µM (inactive), respectively.
